What was measured:
Echinochloa crus-galli = test: Paddy herbicidal activity test; format: in vivo; settings: irrigated paddy pot, treated at 3.5 leaf stage of Echinochloa crus-galli, 30 days
Outline: (§1)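 Flooded paddy-soil pots (3 cm water) were sown with Echinochloa, Monochoria and Scirpus, and rice at the 2.0-leaf stage was transplanted. Diluted wettable powder was dripped in per are at weed 3.5-leaf stage. After 30 days in a greenhouse (~30 °C), growth inhibition versus untreated plants was scored on an 11-level scale.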

Scirpus juncoides = test: Paddy herbicidal activity test; format: in vivo; settings: irrigated paddy pot, 30 days
Outline: as §1

Monochoria vaginalis = test: Paddy herbicidal activity test; format: in vivo; settings: irrigated paddy pot, 30 days
Outline: as §1

Rice plants = test: Paddy herbicidal activity test, phytotoxicity to transplanted rice; format: in vivo; settings: rice transplanted at 2.0 leaf stage, 30 days
Experimental: Rice paddy soil was filled into a 1/10000 are pot followed by the addition of suitable amounts of water and chemical fertilizer, kneading, seeding with Echinochloa crus-galli, Monochoria vaginalis and Scirpus juncoides and maintaining in an irrigated state at a water depth of 3 cm.
Wettable powder of Target Compound (I) shown in Table 1 prepared in compliance with the preparation examples were diluted with a suitable amount of water, rice plants in the 2.0 leaf stage were transplanted during 3.5 leaf stage of Echinochloa crus-galli, and treated by dropping in chemical in the prescribed amount per are using a pipette.
(§2) After treating for 30 days in a glass greenhouse at an average atmospheric temperature of 30° C., the herbicidal efficacy thereof was investigated.
Evaluation of herbicidal efficacy was carried out by comparing growth inhibition rate (%) with an untreated group, while evaluation of phytotoxicity was carried out by comparing growth inhibition rate (%) with the state of a complete eradication group, and were evaluated at 11 levels indicated below.

Chenopodium album [1] = test: Farming soil treatment test; format: in vivo; settings: soil surface spray prior to weed growth, 30 days
Experimental: (§3) Field soil was filled into a 1/6000 are pot followed by seeding with Digitaria ciliaris, Chenopodium album and Amaranthus retroflexus and covering with soil.
(§4) Wettable powder of compounds of formula (I) shown in Table 1 prepared in compliance with the preparation examples were diluted with water to the prescribed amount of chemical and uniformly sprayed onto each soil surface layer using 10 liters of sprayed water per are prior to weed growth following seeding.
as §2
(§5) Evaluation of herbicidal efficacy is carried out in the same manner as the above-mentioned Test Example 1.

Digitaria ciliaris [2] = test: Farming soil treatment test; format: in vivo; settings: soil surface spray prior to weed growth, 30 days
Experimental: as §3, §4, §2, §5

Amaranthus retroflexus [3] = test: Farming soil treatment test; format: in vivo; settings: soil surface spray prior to weed growth, 30 days
Experimental: as §3, §4, §2, §5

Chenopodium album [4] = test: Weed foliar treatment test; format: in vivo; settings: foliar spray, 3 weeks
Experimental: (§6) Soil was filled into a 1/6000 are pot followed by seeding with Digitaria ciliaris, Chenopodium album and Amaranthus retroflexus, covering with soil, and cultivating in a glass greenhouse at an average atmospheric temperature of 25° C.
(§7) Wettable powder of Target Compound (I) shown in Table 1 prepared in compliance with the preparation examples were diluted with water to the prescribed amount of chemical and uniformly sprayed onto the weeds using 15 liters of sprayed water per are when Digitaria ciliaris had grown to the 1.0 to 2.0 leaf stage.
(§8) After treating for 3 weeks in a glass greenhouse at an average atmospheric temperature of 25° C., the herbicidal efficacy thereof was investigated.
(§9) Evaluation of herbicidal efficacy was carried out in the same manner as the above-mentioned Test Example 1.

Digitaria ciliaris [5] = test: Weed foliar treatment test; format: in vivo; settings: foliar spray at 1.0 to 2.0 leaf stage of Digitaria ciliaris, 3 weeks
Experimental: as §6, §7, §8, §9

Amaranthus retroflexus [6] = test: Weed foliar treatment test; format: in vivo; settings: foliar spray, 3 weeks
Experimental: as §6, §7, §8, §9

Structure (SMILES)	Echinochloa crus-galli herbicidal efficacy (growth inhibition level) (Echinochloa crus-galli; 1g a.i./10a)	Echinochloa crus-galli herbicidal efficacy (growth inhibition level) (Echinochloa crus-galli; 5g a.i./10a)	Scirpus juncoides herbicidal efficacy (growth inhibition level) (Scirpus juncoides; 1g a.i./10a)	Scirpus juncoides herbicidal efficacy (growth inhibition level) (Scirpus juncoides; 5g a.i./10a)	Monochoria vaginalis herbicidal efficacy (growth inhibition level) (Monochoria vaginalis; 1g a.i./10a)	Monochoria vaginalis herbicidal efficacy (growth inhibition level) (Monochoria vaginalis; 5g a.i./10a)	Rice plants phytotoxicity (growth inhibition level) (Rice plants; 1g a.i./10a)	Rice plants phytotoxicity (growth inhibition level) (Rice plants; 5g a.i./10a)	Chenopodium album herbicidal efficacy (growth inhibition level) (Chenopodium album [1]; 5g a.i./10a)	Chenopodium album herbicidal efficacy (growth inhibition level) (Chenopodium album [1]; 10g a.i./10a)	Digitaria ciliaris herbicidal efficacy (growth inhibition level) (Digitaria ciliaris [2]; 5g a.i./10a)	Digitaria ciliaris herbicidal efficacy (growth inhibition level) (Digitaria ciliaris [2]; 10g a.i./10a)	Amaranthus retroflexus herbicidal efficacy (growth inhibition level) (Amaranthus retroflexus [3]; 5g a.i./10a)	Amaranthus retroflexus herbicidal efficacy (growth inhibition level) (Amaranthus retroflexus [3]; 10g a.i./10a)	Chenopodium album herbicidal efficacy (growth inhibition level) (Chenopodium album [4]; 5g a.i./10a)	Chenopodium album herbicidal efficacy (growth inhibition level) (Chenopodium album [4]; 10g a.i./10a)	Digitaria ciliaris herbicidal efficacy (growth inhibition level) (Digitaria ciliaris [5]; 5g a.i./10a)	Digitaria ciliaris herbicidal efficacy (growth inhibition level) (Digitaria ciliaris [5]; 10g a.i./10a)	Amaranthus retroflexus herbicidal efficacy (growth inhibition level) (Amaranthus retroflexus [6]; 5g a.i./10a)	Amaranthus retroflexus herbicidal efficacy (growth inhibition level) (Amaranthus retroflexus [6]; 10g a.i./10a)	also measured
C=C(Cl)CNc1c(C#N)cnn1-c1nn2c(c1Cl)CCCC2 [Compound 2, 1-(3-chloro-4,5,6,7-tetrahydropyrazolo[1,5-a]pyridin-2-yl)-5-(2-chloroprop-2-enylamino)pyrazole-4-carbonitrile]	9 (9: 90% to less than 100%)	9 (9: 90% to less than 100%)	7 (7: 70% to less than 80%)	8 (8: 80% to less than 90%)	9 (9: 90% to less than 100%)	9 (9: 90% to less than 100%)	0 (0 (exponent): 0% to less than 10% (growth inhibition rate))	0 (0 (exponent): 0% to less than 10% (growth inhibition rate))	–	–	–	–	–	–	–	–	–	–	–	–	melting point: 123 to 124 °C
C=C(C)CNc1c(C#N)cnn1-c1nn2c(c1Cl)CCCC2 [Compound 1, 1-(3-chloro-4,5,6,7-tetrahydropyrazolo[1,5-a]pyridin-2-yl)-5-(2-methylprop-2-enylamino)pyrazole-4-carbonitrile]	8 (8: 80% to less than 90%)	9 (9: 90% to less than 100%)	7 (7: 70% to less than 80%)	8 (8: 80% to less than 90%)	9 (9: 90% to less than 100%)	9 (9: 90% to less than 100%)	0 (0 (exponent): 0% to less than 10% (growth inhibition rate))	0 (0 (exponent): 0% to less than 10% (growth inhibition rate))	–	–	–	–	–	–	–	–	–	–	–	–	melting point: 97 to 98 °C
C=C(Cl)CN(C(=O)C(F)(F)F)c1c(C#N)cnn1-c1nn2c(c1Cl)CCCC2 [Compound 3, (N-1-(3-chloro-4,5,6,7-tetrahydropyrazolo[1,5-a]pyridin-2-yl)-4-cyanopyrazol-5-yl)-N-(2-chloroprop-2-enyl)-2,2,2-trifluoroacetamide]	9 (9: 90% to less than 100%)	10 (10: 100%)	7 (7: 70% to less than 80%)	8 (8: 80% to less than 90%)	9 (9: 90% to less than 100%)	9 (9: 90% to less than 100%)	0 (0 (exponent): 0% to less than 10% (growth inhibition rate))	0 (0 (exponent): 0% to less than 10% (growth inhibition rate))	10 (10: 100%)	10 (10: 100%)	10 (10: 100%)	10 (10: 100%)	10 (10: 100%)	10 (10: 100%)	10 (10: 100%)	10 (10: 100%)	10 (10: 100%)	10 (10: 100%)	10 (10: 100%)	10 (10: 100%)	–
C#CCN(C(=O)C(F)(F)F)c1c(C#N)cnn1-c1nn2c(c1Cl)CCCC2 [Control agent 4.239, reference compound]	3 (3: 30% to less than 40%)	5 (5: 50% to less than 60%)	0 (0 (exponent): 0% to less than 10% (growth inhibition rate))	1 (1: 10% to less than 20%)	1 (1: 10% to less than 20%)	2 (2: 20% to less than 30%)	0 (0 (exponent): 0% to less than 10% (growth inhibition rate))	1 (1: 10% to less than 20%)	2 (2: 20% to less than 30%)	3 (3: 30% to less than 40%)	4 (4: 40% to less than 50%)	5 (5: 50% to less than 60%)	3 (3: 30% to less than 40%)	5 (5: 50% to less than 60%)	3 (3: 30% to less than 40%)	4 (4: 40% to less than 50%)	3 (3: 30% to less than 40%)	5 (5: 50% to less than 60%)	4 (4: 40% to less than 50%)	6 (6: 60% to less than 70%)	–
C=CCN(CC)c1c(C#N)cnn1-c1nn2c(c1Cl)CCCC2 [Control agent 4.75, reference compound]	3 (3: 30% to less than 40%)	4 (4: 40% to less than 50%)	2 (2: 20% to less than 30%)	2 (2: 20% to less than 30%)	4 (4: 40% to less than 50%)	5 (5: 50% to less than 60%)	0 (0 (exponent): 0% to less than 10% (growth inhibition rate))	1 (1: 10% to less than 20%)	5 (5: 50% to less than 60%)	6 (6: 60% to less than 70%)	3 (3: 30% to less than 40%)	4 (4: 40% to less than 50%)	6 (6: 60% to less than 70%)	6 (6: 60% to less than 70%)	6 (6: 60% to less than 70%)	7 (7: 70% to less than 80%)	4 (4: 40% to less than 50%)	5 (5: 50% to less than 60%)	5 (5: 50% to less than 60%)	7 (7: 70% to less than 80%)	–

Source: patent US9593122B2, “Substituted pyrazolylpyrazole derivative and use of same as herbicide” (KYOYU AGRI CO., LTD., priority 2013, dated 2017)
